The data set is described as follows: Solubility of the compound of formula (i). The class given is physicochemical. How it is done:
Solubility of this compound is 1.09 μg/mL in Solution 1 (pH 1.2) defined in the Japanese Pharmacopoeia at 37° C., 0.88 μg/mL in Solution 2 (pH 6.8) defined in the Japanese Pharmacopoeia at 37° C., 0.53 μg/mL in a phosphate buffer (pH 7.2) at 37° C., and about 2 mg/mL in Panasate at room temperature.

Molecules are shown by their SMILES.

Regarding `O=C(Cc1c(F)cccc1Cl)Nc1onc(-c2ccc(F)cc2)c1-c1ccncn1` [formula (i)], the solubility was 1.09 µg/mL (Solution 1 defined in the Japanese Pharmacopoeia, simulated gastric fluid, Solution 1 (pH 1.2) defined in the Japanese Pharmacopoeia at 37° C.); 0.88 µg/mL (Solution 2 defined in the Japanese Pharmacopoeia, aqueous buffer, Solution 2 (pH 6.8) defined in the Japanese Pharmacopoeia at 37° C.); 0.53 µg/mL (aqueous buffer, phosphate buffer (pH 7.2) at 37° C.); around 2000 µg/mL (oil or lipid, in Panasate at room temperature).

Values taken from US8309138B2, “Pharmaceutical composition comprising microparticle oily suspension” (ASKA Pharmaceutical Co., Ltd., priority 2007, dated 2012).
